From US11149035B2, “Chemical compounds as H—PGDS inhibitors” (GlaxoSmithKline Intellectual Property Development Limited, priority 2017, dated 2021)

How the values were obtained:
[1] = biological target: T1, haematopoietic prostaglandin D synthase (H-PGDS) (Homo sapiens, UniProt O60760); assay: H-PGDS RapidFire high throughput mass spectrometry assay (conversion of PGH2 to PGD2); format: biochemical; conditions: 10 nM H-PGDS, PGH2 formed in situ by COX-2 from arachidonic acid; four parameter curve fit; read-out: Potency Range (mean pIC50) (converted)
T1 construct: Full length human H-PGDS cDNA (Invitrogen Ultimate ORF IOH13026) was amplified by PCR; 6-His (N); TEV protease cleavage site (N); made in house; host or cells: E. coli BL21 (DE3*)
Method in brief: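 His-tagged full-length human H-PGDS from E. coli converts PGH2, generated in situ at ~10 μM from arachidonic acid by FLAG-tagged human COX-2 from Sf9 cells. RapidFire SPE-triple quadrupole MS measures PGD2 against PGF2α as substrate surrogate; percent conversion is calculated.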

[2] = system: limb muscle injury in male C57Bl/6N mice; assay: In vivo assay for functional response to muscle injury (eccentric contraction-induced muscle fatigue); design: species or system mouse; conditions: FIG. 1
Text: Under anesthesia, the right hind limb of a mouse is restrained at the knee and the foot attached to a motorized footplate/force transducer. Needle electrodes are inserted into the upper limb, either side of the sciatic nerve and a current sufficient to elicit a maximal muscle contraction is applied. Muscle tension is produced by moving the footplate to lengthen the plantarflexor muscles while the limb is under maximal stimulation. This is repeated 60 times to fatigue the muscles of the lower limb. Anesthesia, limb immobilization and limb stimulation are then repeated at regular intervals to measure maximal isometric force in the recovering limb. 7 to 9 animals are tested for each test condition.

T1 sequence (O60760 whole entry): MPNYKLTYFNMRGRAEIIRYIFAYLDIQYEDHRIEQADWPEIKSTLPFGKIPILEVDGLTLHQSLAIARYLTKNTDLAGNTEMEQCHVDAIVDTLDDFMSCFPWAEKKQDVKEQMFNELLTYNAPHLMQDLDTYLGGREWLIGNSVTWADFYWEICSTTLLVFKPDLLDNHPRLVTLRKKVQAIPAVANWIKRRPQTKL

CC(C)(O)[C@H]1CC[C@H](NC(=O)c2cnc3nc(C4CC4)ccc3c2)CC1 [Example 21, 7-Cyclopropyl-N-((trans)-4-(2-hydroxypropan-2-yl)cyclohexyl)-1,8-naphthyridine-3-carboxamide]
IC50 [1]: < 0.01 µM
kinetics of recovery of maximal isometric force after injury ([2]; PO 3 and 10 mg/kg QD beginning 10 min prior to eccentric contraction challenge): acceleration in the kinetics of recovery
initial magnitude of the injury (isometric limb force 24 hours following protocol initiation) ([2]; PO 3 and 10 mg/kg QD, 24 hours): reduced the initial magnitude of the injury
